Experimental data as given in patent publication US20040006236A1, “Diaminopropionic acid derivatives” (priority 1999, published 2004).

What was measured:
[1] = biological target: T1, LFA-1 binding to immobilized ICAM-1 (Homo sapiens, UniProt P05107+P20701); assay: LFA-1/ICAM-1 protein-protein assay (solid-phase ELISA); conditions: read-out: LFA-1/ICAM-1 Protein-Protein Assay IC50
T1 construct: made in house; host or cells: transfected 293 cells (LFA-1)
How it was run: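 Human 5dICAM-Ig (ICAM-1 extracellular domain–IgG Fc) coated on plates; membrane-bound LFA-1 from transfected 293 cells (280 ng/mL) added with compound in Mn2+-containing HEPES buffer pH 7.2, 2 h at 37° C. Bound LFA-1 detected via anti-β2 antibody and HRP/TMB at 450 nm; IC50s determined.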

[2] = tested on: cell-surface Mac-1 adhesion to immobilized fibrinogen (HL-60 cells); assay: Mac-1/Fibrinogen cell-based screening assay; set-up: species or system human; conditions: Homo sapiens, HL-60, HL-60 cells; read-out: Mac-1/Fgn Cell based Assay IC50
How it was run: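 Wells coated with fibrinogen and blocked with PVP. Labeled HL-60 cells (2×10^6 cells/mL in RPMI/0.05% BSA/0.2 mM MnCl2) preincubated with DMSO-diluted compounds for 10 min at 37° C, then left to adhere 30 min at 37° C/5% CO2. Unbound cells washed off with TBS.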

T1 sequence (P20701 26-1170): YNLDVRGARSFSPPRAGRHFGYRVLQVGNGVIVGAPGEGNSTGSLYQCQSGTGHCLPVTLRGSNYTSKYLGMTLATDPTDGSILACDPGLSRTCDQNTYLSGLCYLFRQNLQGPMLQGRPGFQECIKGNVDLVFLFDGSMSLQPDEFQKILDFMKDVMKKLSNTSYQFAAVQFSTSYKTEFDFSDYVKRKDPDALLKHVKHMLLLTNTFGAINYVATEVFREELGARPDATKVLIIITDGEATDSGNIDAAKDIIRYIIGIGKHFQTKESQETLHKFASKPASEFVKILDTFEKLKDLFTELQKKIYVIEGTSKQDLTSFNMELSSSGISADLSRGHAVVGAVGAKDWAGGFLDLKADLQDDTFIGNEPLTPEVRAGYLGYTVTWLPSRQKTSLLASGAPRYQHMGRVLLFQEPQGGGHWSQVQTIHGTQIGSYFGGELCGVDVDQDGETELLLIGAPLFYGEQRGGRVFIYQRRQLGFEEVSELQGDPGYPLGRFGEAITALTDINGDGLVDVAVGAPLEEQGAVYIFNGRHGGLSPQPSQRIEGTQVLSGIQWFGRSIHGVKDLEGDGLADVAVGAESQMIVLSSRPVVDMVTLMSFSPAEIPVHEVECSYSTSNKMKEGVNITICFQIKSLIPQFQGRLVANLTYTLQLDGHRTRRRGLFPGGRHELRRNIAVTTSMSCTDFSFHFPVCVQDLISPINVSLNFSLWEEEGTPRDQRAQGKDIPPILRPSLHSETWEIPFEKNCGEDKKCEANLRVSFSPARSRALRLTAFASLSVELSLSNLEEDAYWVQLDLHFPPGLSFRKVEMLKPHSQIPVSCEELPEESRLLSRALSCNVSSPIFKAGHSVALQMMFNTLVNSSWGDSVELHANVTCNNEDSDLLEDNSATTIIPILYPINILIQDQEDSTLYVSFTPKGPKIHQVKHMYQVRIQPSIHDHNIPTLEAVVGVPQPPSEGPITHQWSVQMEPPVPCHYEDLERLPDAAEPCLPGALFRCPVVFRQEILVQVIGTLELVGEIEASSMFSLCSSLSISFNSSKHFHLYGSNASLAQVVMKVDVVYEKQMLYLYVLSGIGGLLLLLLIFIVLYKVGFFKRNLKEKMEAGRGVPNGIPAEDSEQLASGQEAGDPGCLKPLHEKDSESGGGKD
T1 sequence (P05107 23-769): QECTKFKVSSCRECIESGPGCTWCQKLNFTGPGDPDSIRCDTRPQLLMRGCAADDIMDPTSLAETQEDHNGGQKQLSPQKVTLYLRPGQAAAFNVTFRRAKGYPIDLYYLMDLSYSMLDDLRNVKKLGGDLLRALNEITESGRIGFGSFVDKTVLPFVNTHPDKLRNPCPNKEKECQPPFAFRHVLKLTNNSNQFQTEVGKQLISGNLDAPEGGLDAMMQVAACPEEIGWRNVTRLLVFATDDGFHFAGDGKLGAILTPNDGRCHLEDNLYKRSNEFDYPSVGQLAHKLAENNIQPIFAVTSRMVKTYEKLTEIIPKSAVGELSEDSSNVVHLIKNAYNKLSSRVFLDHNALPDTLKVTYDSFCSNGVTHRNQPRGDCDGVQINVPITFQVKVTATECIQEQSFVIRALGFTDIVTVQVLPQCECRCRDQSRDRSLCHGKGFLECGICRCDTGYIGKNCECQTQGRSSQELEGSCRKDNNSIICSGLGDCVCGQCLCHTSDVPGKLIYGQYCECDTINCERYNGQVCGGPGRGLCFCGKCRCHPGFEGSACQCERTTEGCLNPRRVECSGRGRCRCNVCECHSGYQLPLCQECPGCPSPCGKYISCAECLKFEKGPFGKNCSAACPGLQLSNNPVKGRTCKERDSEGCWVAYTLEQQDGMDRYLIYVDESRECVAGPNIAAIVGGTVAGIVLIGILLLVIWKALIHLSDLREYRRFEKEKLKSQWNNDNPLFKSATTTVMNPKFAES

SMILES	IC50 [1] [nM]	IC50 [2] [nM]
O=C(NCc1cccc(O)c1)c1ccc(C(=O)N[C@@H](CNC(=O)c2ccccc2[N+](=O)[O-])C(=O)O)c(Cl)c1 [Example 140]	1.8	98
O=C(NCc1cccc(O)c1)c1ccc(C(=O)N[C@@H](CNC(=O)c2cccc([N+](=O)[O-])c2)C(=O)O)c(Cl)c1 [Example 141]	1.9	47
O=C(NCc1cccc(O)c1)c1ccc(C(=O)N[C@@H](CNC(=O)c2ccc([N+](=O)[O-])cc2)C(=O)O)c(Cl)c1 [Example 142]	2	275
O=C(NCc1cccc(O)c1)c1ccc(C(=O)N[C@@H](CNC(=O)c2cc(F)c(F)cc2F)C(=O)O)c(Cl)c1 [Example 145]	1.7	131
O=C(NCc1cccc(O)c1)c1ccc(C(=O)N[C@@H](CNC(=O)c2cccc(C(F)(F)F)c2)C(=O)O)c(Cl)c1 [Example 146]	2.6	153
O=C(NCc1cccc(O)c1)c1ccc(C(=O)N[C@@H](CNC(=O)c2ccco2)C(=O)O)c(Cl)c1 [Example 148]	1.4	76
O=C(NCc1cccc(O)c1)c1ccc(C(=O)N[C@@H](CNC(=O)c2ccc(Br)o2)C(=O)O)c(Cl)c1 [Example 150]	2.5	65
O=C(NCc1cccc(O)c1)c1ccc(C(=O)N[C@@H](CNC(=O)c2ccc[nH]2)C(=O)O)c(Cl)c1 [Example 151]	2.8	46
Cc1noc(C)c1C(=O)NC[C@H](NC(=O)c1ccc(C(=O)NCc2cccc(O)c2)cc1Cl)C(=O)O [Example 153]	7.7	804
O=C(NCc1cccc(O)c1)c1ccc(C(=O)N[C@@H](CNC(=O)c2sccc2Br)C(=O)O)c(Cl)c1 [Example 154]	0.9	58
O=C(NCc1cccc(O)c1)c1ccc(C(=O)N[C@@H](CNC(=O)c2ccc(Br)s2)C(=O)O)c(Cl)c1 [Example 155]	0.7	51
O=C(NCc1cccc(O)c1)c1ccc(C(=O)N[C@@H](CNC(=O)c2sccc2Cl)C(=O)O)c(Cl)c1 [Example 156]	1	64
O=C(NCc1cccc(O)c1)c1ccc(C(=O)N[C@@H](CNC(=O)c2ccc(Cl)s2)C(=O)O)c(Cl)c1 [Example 157]	1.2	34
O=C(NCc1cccc(O)c1)c1ccc(C(=O)N[C@@H](CNC(=O)c2cc(Br)c(Br)s2)C(=O)O)c(Cl)c1 [Example 158]	7.5	70
Cc1ccsc1C(=O)NC[C@H](NC(=O)c1ccc(C(=O)NCc2cccc(O)c2)cc1Cl)C(=O)O [Example 159]	0.9	36
Cc1ccc(C(=O)NC[C@H](NC(=O)c2ccc(C(=O)NCc3cccc(O)c3)cc2Cl)C(=O)O)s1 [Example 160]	0.9	11
O=C(NCc1cccc(O)c1)c1ccc(C(=O)N[C@@H](CNC(=O)c2ccsc2)C(=O)O)c(Cl)c1 [Example 161]	1	17

The remaining lines, values ahead:

IC50 [1] [nM]	IC50 [2] [nM]	SMILES
2.1	4	C[C@@H](NC(=O)c1cc(Cl)c(C(=O)N[C@@H](CNC(=O)c2cccs2)C(=O)O)c(Cl)c1)c1cccc2ccccc12 [Example 346, N-[2,6-dichloro-4-[[[(1R)-1-(1-naphthalenyl)ethyl]amino]carbonyl]benzoyl]-3-[(thiophene-2-carbonyl)amino]-L-alanine]
3.4	13.1	C[C@@H](NC(=O)c1cc(Cl)c(C(=O)N[C@@H](CNC(=O)c2ccccc2)C(=O)O)c(Cl)c1)c1cccc2ccccc12 [Example 347]
1.1	6.2	O=C(NCc1cccc(O)c1)c1cc(Cl)c(C(=O)N[C@@H](CNC(=O)c2cccc(F)c2)C(=O)O)c(Cl)c1 [Example 349]
1	0.5	O=C(NCc1cccc(O)c1)c1cc(Cl)c(C(=O)N[C@@H](CNC(=O)c2cccc(O)c2)C(=O)O)c(Cl)c1 [Example 350]
0.8	3	COc1ccc(C(=O)NC[C@H](NC(=O)c2c(Cl)cc(C(=O)NCc3cccc(O)c3)cc2Cl)C(=O)O)cc1O [Example 351]
1.6	13	O=C(NCc1cccc(O)c1)c1cc(Cl)c(C(=O)N[C@@H](CNC(=O)c2sccc2Br)C(=O)O)c(Cl)c1 [Example 353]
1	12	O=C(NCc1cccc(O)c1)c1cc(Cl)c(C(=O)N[C@@H](CNC(=O)c2ccc(Br)s2)C(=O)O)c(Cl)c1 [Example 354]
0.2	6.5	Cc1ccc(C(=O)NC[C@H](NC(=O)c2c(Cl)cc(C(=O)NCc3cccc(O)c3)cc2Cl)C(=O)O)s1 [Example 358]
